Measurements taken from patent US8946413B2 (Pfizer Inc., priority 2008, dated 2015).
Like-named read-outs stand apart in the source and are kept apart here.

Target: T1, CCR2 (Homo sapiens, UniProt P41597)
T1 construct: (leukophoresis pack); host or cells: human peripheral blood mononuclear cells (PBMCs) from a normal human leukophoresis pack
Test: hCCR2 (125-I hMCP-1) small molecule binding assay on human PBMCs
Conditions: 125I-MCP-1, human PBMCs
From the text: The CCR2 antagonist activity of compounds of the invention can be reported as the inhibitor concentration required for 50% inhibition (IC50 values) of specific binding in receptor binding assays using 125I-labeled MCP-1, as ligand, and Peripheral Blood Mononuclear Cells (PBMCs) prepared from normal human whole blood via density gradient centrifugation. Specific binding is defined as the total binding (e.g., total cpm on filters) minus the non-specific binding. Non-specific binding is defined as the amount of cpm still defected in the presence of excess unlabeled competitor (e.g., MCP-1),
Human PBMCs were used to test compounds of the invention in a binding assay. For example, 200,000 to 500,000 cells were incubated with 0.1 to 0.2 nM 125I-labeled MCP-1, with or without unlabeled competitor (10 nM MCP-1) or various concentrations of compounds to be tested. 125I-labeled MCP-1, were prepared by suitable methods or purchased from commercial vendors (Perkin Elmer, Boston Mass.). The binding reactions were performed in 50 to 250 μL of a binding buffer consisting of […] pH 7.2, and 0.1% BSA (bovine serum albumin), for 30 minutes at room temperature. The binding reactions were terminated by harvesting the membranes by rapid filtration through glass fiber filters (Perkin Elmer) which was presoaked in 0.3% polyethyleneimine or Phosphate Buffered Saline (PBS). The filters were rinsed with approximately 600 μL of binding buffer containing, 0.5 M NaCl or PBS, then dried, and the amount of bound radioactivity was determined by counting on a Gamma Counter (Perkin Elmer).
More specifically, the following assay may be employed to determine IC50 values for the compounds of the present invention.
hCCR2 (125-I hMCP-1) Small Molecule Binding Assay
Normal human leukophoresis pack contents, available from Biological Specialty Corporation, Colmar, Pa., is diluted 1:1 with PBS, divided into 50 ml conical tubes (preferably less than 40 mls per tube), and underlayed with 10 mls of Ficoll-Paque PLUS (GE Healthcare 17-1440-02). The tubes are centrifuged at 2800 rpm in a clinical centrifuge at room temperature for 30 mins, with no brake. The plasma layer is suctioned, and the buffycoat layer is collected. The collected buffycoat layer is washed twice with 50 mls PBS, and centrifuged at 1400 rpm with brake. The cells are counted. The cells are then diluted to 1×10^7 cells per ml in binding buffer.
96 well plates (such as, for example, Millipore MultiScreen96 plates) are pre-wet with about 100 μl binding buffer (RPMI+0.1% BSA+20 mM HEPES), and blotted just prior to compound addition.
5 μl of 50 μM test compounds in 100% DMSO are dotted onto U-bottom polypropylene 96-well plates.
245 μl per well of Binding Buffer is added to each well for 1 μM compound concentration in 2% DMSO.
50 μl of 1 μM compound is transferred to pre-wetted Millipore plates. 50 μl per well of 1×10E7 cells per ml of freshly prepared human PBMCs are added.
The samples are pre-incubated at room temperature for 30 minutes or 1 hour.
50 μl of 450 pM 125-I-hMCP-1 (Perkin-Elmer/NEN cat#NEX332025UC) is added for a final concentration 125-I-hMCP-1 of 150 pM per well.
The final test compound concentration is 0.333 uM in 150 μl total volume with 0.67% DMSO in all wells. Controls for this assay consist of 0% inhibition and 100% inhibition with 1 uM hMCP-1 (saturating conditions). All wells are run in duplicate. Controls may be in replicates of eight.
The samples are incubated at room temperature for 30 minutes.
The buffer is suctioned through the Millipore plates. The plates are washed three times with Wash Buffer (PRMI+0.1% BSA+20 mM HEPES+ 0.4 M NaC).
The plate underdrain is removed. The plate filters are allowed to dry. The filters are then punched out into plastic tubes.
Finally, the sample is counted an a Gamma Counter.
All IC50 plates were repeated for an n=2.
The following table summarizes the IC50 values identified through the described assay.

[1] = 30 min preincubation, read-out: IC50 (nM) 30 min preinc
[2] = 1 hr preincubation, read-out: IC50 (nM) 1 hr preinc

T1 sequence (P41597 whole entry): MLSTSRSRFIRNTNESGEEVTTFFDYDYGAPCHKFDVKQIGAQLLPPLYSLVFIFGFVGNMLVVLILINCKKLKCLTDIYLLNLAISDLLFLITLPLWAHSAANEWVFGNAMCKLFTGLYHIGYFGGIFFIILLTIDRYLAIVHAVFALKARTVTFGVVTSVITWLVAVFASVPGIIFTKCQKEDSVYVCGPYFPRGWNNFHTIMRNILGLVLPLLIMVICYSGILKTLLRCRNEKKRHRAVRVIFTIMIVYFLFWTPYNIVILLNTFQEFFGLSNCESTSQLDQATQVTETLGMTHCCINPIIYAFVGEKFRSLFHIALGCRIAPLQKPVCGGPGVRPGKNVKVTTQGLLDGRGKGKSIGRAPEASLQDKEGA

Row | SMILES | IC50 [1] [nM] | IC50 [2] [nM]
1 | CC[C@]1(C(=O)N2C[C@@H]3C[C@H]2CN3c2cc(C(F)(F)F)ccn2)CC[C@@H](N[C@H]2CCOC[C@H]2OC)C1 [Example 1, 1,5-anhydro-2,3-dideoxy-3-{[(1R,3S)-3-ethyl-3-({(1S,4S)-5-[4-(trifluoromethyl)pyridin-2-yl]-2,5-diazabicyclo[2.2.1]hept-2-yl}carbonyl)cyclopentyl]amino}-4-O-methyl-D-erythro-pentitol] | 2.47 | –
2 | CC[C@]1(C(=O)N2C[C@@H]3C[C@H]2CN3c2cc(C(F)(F)F)ncn2)CC[C@@H](N[C@H]2CCOC[C@H]2OC)C1 [Example 3, 1,5-anhydro-2,3-dideoxy-3-{[(1R,3S)-3-ethyl-3-({(1S,4S)-5-[6-(trifluoromethyl)pyrimidin-4-yl]-2,5-diazabicyclo[2.2.1]hept-2-yl}carbonyl)cyclopentyl]amino}-4-O-methyl-D-erythro-pentitol] | 17.8 | –
3 | CC[C@]1(C(=O)N2C[C@@H]3C[C@H]2CN3c2cncc(C(F)(F)F)n2)CC[C@@H](N[C@H]2CCOC[C@H]2OC)C1 [Example 4, 1,5-anhydro-2,3-dideoxy-3-{[(1R,3S)-3-ethyl-3-({(1S,4S)-5-[6-(trifluoromethyl)pyrazin-2-yl]-2,5-diazabicyclo[2.2.1]hept-2-yl}carbonyl)cyclopentyl]amino}-4-O-methyl-D-erythro-pentitol] | 3.98 | –
4 | CC[C@]1(C(=O)N2C[C@@H]3C[C@H]2CN3c2ccnc(C(F)(F)F)n2)CC[C@@H](N[C@H]2CCOC[C@H]2OC)C1 [Example 5, 1,5-anhydro-2,3-dideoxy-3-{[(1R,3S)-3-ethyl-3-({(1S,4S)-5-[2-(trifluoromethyl)pyrimidin-4-yl]-2,5-diazabicyclo[2.2.1]hept-2-yl}carbonyl)cyclopentyl]amino}-4-O-methyl-D-erythro-pentitol] | 13.3 | –
5 | CC[C@]1(C(=O)N2C[C@@H]3C[C@H]2CN3c2ccnc(C(F)(F)F)c2)CC[C@@H](N[C@H]2CCOC[C@H]2OC)C1 [Example 7, 1,5-anhydro-2,3-dideoxy-3-{[(1R,3S)-3-ethyl-3-({(1S,4S)-5-[2-(trifluoromethyl)pyridin-4-yl]-2,5-diazabicyclo[2.2.1]hept-2-yl}carbonyl)cyclopentyl]amino}-4-O-methyl-D-erythro-pentitol] | 17.1 | –
6 | CO[C@@H]1COCC[C@@H]1N[C@@H]1CC[C@@](C(=O)N2C[C@@H]3C[C@H]2CN3c2cc(C(F)(F)F)ccn2)(C(C)C)C1 [Example 11, 1,5-anhydro-2,3-dideoxy-3-{[(1R,3S)-3-isopropyl-3-({(1S,4S)-5-[4-(trifluoromethyl)pyridin-2-yl]-2,5-diazabicyclo[2.2.1]hept-2-yl}carbonyl)cyclopentyl]amino}-4-O-methyl-D-erythro-pentitol] | 6.72 | 2.44
7 | CO[C@@H]1COCC[C@@H]1N[C@@H]1CC[C@@](C(=O)N2C[C@@H]3C[C@H]2CN3c2ccnc(C(F)(F)F)n2)(C(C)C)C1 [Example 15, 1,5-anhydro-2,3-dideoxy-3-{[(1R,3S)-3-isopropyl-3-({(1S,4S)-5-[2-(trifluoromethyl)pyrimidin-4-yl]-2,5-diazabicyclo[2.2.1]hept-2-yl}carbonyl)cyclopentyl]amino}-4-O-methyl-D-erythro-pentitol] | 40 | 4.6

More lines, in order of falling IC50 [1], values ahead:

Row | IC50 [1] [nM] | IC50 [2] [nM] | SMILES
8 | 83.8 | – | CO[C@@H]1COCC[C@@H]1N[C@@H]1CC[C@](C)(C(=O)N2C[C@@H]3C[C@H]2CN3c2cncc(C(F)(F)F)n2)C1 [Example 10, 1,5-anhydro-2,3-dideoxy-3-{[(1R,3S)-3-methyl-3-({(1S,4S)-5-[6-(trifluoromethyl)pyrazin-2-yl]-2,5-diazabicyclo[2.2.1]hept-2-yl}carbonyl)cyclopentyl]amino}-4-O-methyl-D-erythro-pentitol]
9 | 30.7 | – | CO[C@@H]1COCC[C@@H]1N[C@@H]1CC[C@](C)(C(=O)N2C[C@@H]3C[C@H]2CN3c2cc(C(F)(F)F)ccn2)C1 [Example 9, 1,5-anhydro-2,3-dideoxy-3-{[(1R,3S)-3-methyl-3-({(1S,4S)-5-[4-(trifluoromethyl)pyridine-2-yl]-2,5-diazabicyclo[2.2.1]hept-2-yl}carbonyl)cyclopentyl]amino}-4-O-methyl-D-erythro-pentitol]
10 | 13.7 | 5.8 | CO[C@@H]1COCC[C@@H]1N[C@@H]1CC[C@@](C(=O)N2C[C@@H]3C[C@H]2CN3c2ccnc(C(F)(F)F)c2)(C(C)C)C1 [Example 17, 1,5-anhydro-2,3-dideoxy-3-{[(1R,3S)-3-isopropyl-3-({(1S,4S)-5-[2-(trifluoromethyl)pyridin-4-yl]-2,5-diazabicyclo[2.2.1]hept-2-yl}carbonyl)cyclopentyl]amino}-4-O-methyl-D-erythro-pentitol]
11 | 11.1 | 1.7 | CO[C@@H]1COCC[C@@H]1N[C@@H]1CC[C@@](C(=O)N2C[C@@H]3C[C@H]2CN3c2nccc(C(F)(F)F)n2)(C(C)C)C1 [Example 12, 1,5-anhydro-2,3-dideoxy-3-{[(1R,3S)-3-isopropyl-3-({(1S,4S)-5-[4-(trifluoromethyl)pyrimidin-2-yl]-2,5-diazabicyclo[2.2.1]hept-2-yl}carbonyl)cyclopentyl]amino}-4-O-methyl-D-erythro-pentitol]
12 | 10.7 | – | CC[C@]1(C(=O)N2C[C@@H]3C[C@H]2CN3c2nccc(C(F)(F)F)c2F)CC[C@@H](N[C@H]2CCOC[C@H]2OC)C1 [Example 8, 1,5-anhydro-2,3-dideoxy-3-{[(1R,3S)-3-ethyl-3-({(1S,4S)-5-[3-fluoro-4-(trifluoromethyl)pyridin-2-yl]-2,5-diazabicyclo[2.2.1]hept-2-yl}carbonyl)cyclopentyl]amino}-4-O-methyl-D-erythro-pentitol]
13 | 10.4 | 2.3 | CO[C@@H]1COCC[C@@H]1N[C@@H]1CC[C@@](C(=O)N2C[C@@H]3C[C@H]2CN3c2cncc(C(F)(F)F)n2)(C(C)C)C1 [Example 14, 1,5-anhydro-2,3-dideoxy-3-{[(1R,3S)-3-isopropyl-3-({(1S,4S)-5-[6-(trifluoromethyl)pyrazin-2-yl]-2,5-diazabicyclo[2.2.1]hept-2-yl}carbonyl)cyclopentyl]amino}-4-O-methyl-D-erythro-pentitol]
14 | 9.95 | 1.1 | CO[C@@H]1COCC[C@@H]1N[C@@H]1CC[C@@](C(=O)N2C[C@@H]3C[C@H]2CN3c2cccc(C(F)(F)F)n2)(C(C)C)C1 [Example 16, 1,5-anhydro-2,3-dideoxy-3-{[(1R,3S)-3-isopropyl-3-({(1S,4S)-5-[6-(trifluoromethyl)pyridin-2-yl]-2,5-diazabicyclo[2.2.1]hept-2-yl}carbonyl)cyclopentyl]amino}-4-O-methyl-D-erythro-pentitol]
15 | 3.16 | – | CC[C@]1(C(=O)N2C[C@@H]3C[C@H]2CN3c2nccc(C(F)(F)F)n2)CC[C@@H](N[C@H]2CCOC[C@H]2OC)C1 [Example 2, 1,5-anhydro-2,3-dideoxy-3-{[(1R,3S)-3-ethyl-3-({(1S,4S)-5-[4-(trifluoromethyl)pyrimidin-2-yl]-2,5-diazabicyclo[2.2.1]hept-2-yl}carbonyl)cyclopentyl]amino}-4-O-methyl-D-erythro-pentitol]
16 | 1.73 | – | CC[C@]1(C(=O)N2C[C@@H]3C[C@H]2CN3c2cccc(C(F)(F)F)n2)CC[C@@H](N[C@H]2CCOC[C@H]2OC)C1 [Example 6, 1,5-anhydro-2,3-dideoxy-3-{[(1R,3S)-3-ethyl-3-({(1S,4S)-5-[6-(trifluoromethyl)pyridin-2-yl]-2,5-diazabicyclo[2.2.1]hept-2-yl}carbonyl)cyclopentyl]amino}-4-O-methyl-D-erythro-pentitol]
